Legend:
Format in all cases: in vivo
[1] = test system: Abutilon theophrasti (ABUTH); test: Pre-emergence herbicidal action against ABUTH; settings: Dosage column 320 g/ha (title prints 3200 g/ha); scored visually after about 3 weeks; 100% = plants have died
Method in brief: (§1)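 Pre-emergence soil-surface spray of compound, formulated as wettable powder or emulsion concentrate, in aqueous suspension or emulsion with 0.5% additive (600 l/ha; rate 320 g/ha or less). Activity rated visually after roughly 3 weeks in the greenhouse as a percentage of untreated controls, 0% meaning no difference.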

[2] = test system: Echinochloa crus-galli (ECHCG); test: Pre-emergence herbicidal action against ECHCG
Method in brief: as §1

[3] = test system: Polygonum convolvulus (POLCO); test: Pre-emergence herbicidal action against POLCO
Method in brief: as §1

[4] = test system: Matricaria inodora (MATIN); test: Pre-emergence herbicidal action against MATIN
Method in brief: as §1

[5] = test system: Alopecurus myosuroides (ALOMY); test: Pre-emergence herbicidal action against ALOMY; settings: scored visually after about 3 weeks, 100% = plants have died
Method in brief: as §1

[6] = test system: Pharbitis purpurea (PHBPU); test: Pre-emergence herbicidal action against PHBPU
Method in brief: as §1

Avena fatua (AVEFA) [7] = test: Pre-emergence herbicidal action against AVEFA; settings: 320 g/ha, visual scoring after about 3 weeks vs untreated controls
Method in brief: as §1

[8] = test system: Amaranthus retroflexus (AMARE); test: Post-emergence herbicidal action against AMARE
Method in brief: (§2)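 Values are percent visual activity (0% like control, 100% plants dead) after about 3 weeks in the greenhouse. Treatment: post-emergence spray at one-leaf stage, 600 l/ha spray volume, 0.5% additive, doses 320 g/ha or lower.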

[9] = test system: Alopecurus myosuroides (ALOMY); test: Post-emergence herbicidal action against ALOMY; settings: visual rating about 3 weeks after treatment vs untreated controls (100% = plants have died, 0% = like control plants)
Method in brief: as §2

Setaria viridis (SETVI) [10] = test: Pre-emergence herbicidal action against SETVI
Method in brief: as §1

[11] = test system: Amaranthus retroflexus (AMARE); test: Pre-emergence herbicidal action against AMARE; settings: visual scoring after about 3 weeks vs untreated controls
Method in brief: as §1

[12] = test system: Matricaria inodora (MATIN); test: Post-emergence herbicidal action against MATIN; settings: dosage 320 g/ha
Method in brief: as §2

Viola tricolor (VIOTR) [13] = test: Post-emergence herbicidal action against VIOTR; settings: 320 g/ha
Method in brief: as §2

Lolium rigidum (LOLRI) [14] = test: Post-emergence herbicidal action against LOLRI
Method in brief: as §2

[15] = test system: Verconica persica (VERPE); test: Post-emergence herbicidal action against VERPE
Method in brief: as §2

[16] = test system: Echinochloa crus-galli (ECHCG); test: Post-emergence herbicidal action against ECHCG
Method in brief: as §2

[17] = test system: Verconica persica (VERPE); test: Pre-emergence herbicidal action against VERPE
Method in brief: as §1

[18] = test system: Abutilon theophrasti (ABUTH); test: Post-emergence herbicidal action against ABUTH; settings: visual rating about 3 weeks after treatment vs untreated controls (100% = plants have died, 0% = like control plants)
Method in brief: as §2

Avena fatua (AVEFA) [19] = test: Post-emergence herbicidal action against AVEFA; settings: visual rating about 3 weeks after treatment
Method in brief: as §2

Lolium rigidum (LOLRI) [20] = test: Pre-emergence herbicidal action against LOLRI
Method in brief: as §1

Setaria viridis (SETVI) [21] = test: Post-emergence herbicidal action against SETVI
Method in brief: as §2

Viola tricolor (VIOTR) [22] = test: Pre-emergence herbicidal action against VIOTR
Method in brief: as §1

[23] = test system: Pharbitis purpurea (PHBPU); test: Post-emergence herbicidal action against PHBPU
Method in brief: as §2

Oryza sativa (ORYSA) = settings: crop plant compatibility, 80 g/ha, effect in comparison to untreated controls
Method in brief: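 Test crops were treated 2 to 3 weeks after sowing, once they reached one leaf, by spraying compound in water with 0.5% additive at 600 l/ha. Visual scoring compared them with untreated controls roughly 3 weeks on, and appendices a, b and c denote different doses.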

[24] = 320 g/ha, visual rating about 3 weeks after treatment

Compound: COC(=O)C(C)COC(=O)[C@@H](C)Oc1nn(-c2ccccn2)c(-c2cncc(F)c2)c1Cl (some centres unmarked) [Example I-198]
- Pre-emergence action against ABUTH [1]: 90%
- Pre-emergence action against ECHCG in % ([2]; dosage 80 g/ha): 90%
- Pre-emergence action against ECHCG in % ([2]; dosage 320 g/ha): 100%
- Pre-emergence action against POLCO in % ([3]; dosage 80 g/ha): 90%
- Pre-emergence action against POLCO in % ([3]; dosage 320 g/ha): 90%
- Pre-emergence action against MATIN in % ([4]; dosage 80 g/ha): 90%
- Pre-emergence action against MATIN in % ([4]; dosage 320 g/ha): 90%
- Pre-emergence action against ALOMY ([5]; 80 g/ha): 80%
- Pre-emergence action against ALOMY ([5]; 320 g/ha): 90%
- Pre-emergence action against PHBPU in % ([6]; dosage 80 g/ha): 80%
- Pre-emergence action against PHBPU in % ([6]; dosage 320 g/ha): 90%
- Pre-emergence action against AVEFA in % (Avena fatua (AVEFA) [7]): 90%
- Post-emergence action against AMARE in % ([8]; 80 g/ha, visual rating about 3 weeks after treatment vs untreated controls (100% = plants have died, 0% = like control plants)): 80%
- Post-emergence action against AMARE in % [8, 24]: 90%
- Post-emergence action against ALOMY in % ([9]; 80 g/ha): 80%
- Post-emergence action against ALOMY in % ([9]; 320 g/ha): 80%
- Pre-emergence action against SETVI in % (Setaria viridis (SETVI) [10]; dosage 80 g/ha): 100%
- Pre-emergence action against SETVI in % (Setaria viridis (SETVI) [10]; dosage 320 g/ha): 100%
- Pre-emergence action against AMARE in % ([11]; 80 g/ha): 100%
- Pre-emergence action against AMARE in % ([11]; 320 g/ha): 100%
- Post-emergence action against MATIN in % [12]: 80%
- Post-emergence action against VIOTR in % (Viola tricolor (VIOTR) [13]): 80%
- Post-emergence action against LOLRI in % (Lolium rigidum (LOLRI) [14]; dosage 80 g/ha): 80%
- Post-emergence action against LOLRI in % (Lolium rigidum (LOLRI) [14]; dosage 320 g/ha): 80%
- Post-emergence action against VERPE in % ([15]; 320 g/ha, VERPE): 80%
- Post-emergence action against VERPE in % ([15]; dosage 80 g/ha): 80%
- Post-emergence action against ECHCG in % ([16]; dosage 80 g/ha): 80%
- Post-emergence action against ECHCG in % ([16]; dosage 320 g/ha): 80%
- Pre-emergence action against VERPE in % ([17]; dosage 80 g/ha): 90%
- Pre-emergence action against VERPE in % ([17]; dosage 320 g/ha): 100%
- Post-emergence action against ABUTH in % ([18]; 80 g/ha): 80%
- Post-emergence action against ABUTH in % ([18]; 320 g/ha): 80%
- Post-emergence action against AVEFA in % (Avena fatua (AVEFA) [19]; 80 g/ha): 80%
- Post-emergence action against AVEFA in % (Avena fatua (AVEFA) [19]; 320 g/ha): 80%
- Pre-emergence action against LOLRI in % (Lolium rigidum (LOLRI) [20]; dosage 80 g/ha): 100%
- Pre-emergence action against LOLRI in % (Lolium rigidum (LOLRI) [20]; dosage 320 g/ha): 100%
- Post-emergence action against SETVI in % (Setaria viridis (SETVI) [21]; dosage 80 g/ha): 80%
- Post-emergence action against SETVI in % (Setaria viridis (SETVI) [21]; dosage 320 g/ha): 80%
- Pre-emergence action against VIOTR in % (Viola tricolor (VIOTR) [22]; 320 g/ha, Viola tricolor): 100%
- Pre-emergence action against VIOTR in % (Viola tricolor (VIOTR) [22]; dosage 80 g/ha): 90%
- Post-emergence action against PHBPU in % ([23]; dosage 80 g/ha): 80%
- Post-emergence action against PHBPU in % ([23]; dosage 320 g/ha): 90%

Compound: O=C(O)COc1nn(-c2nc(F)ccc2F)c(-c2cncc(F)c2)c1Br [Example I-207]
- Pre-emergence action against ABUTH [1]: 80%
- Pre-emergence action against ECHCG in % ([2]; dosage 80 g/ha): 90%
- Pre-emergence action against ECHCG in % ([2]; dosage 320 g/ha): 100%
- Pre-emergence action against POLCO in % ([3]; dosage 80 g/ha): 90%
- Pre-emergence action against POLCO in % ([3]; dosage 320 g/ha): 100%
- Pre-emergence action against MATIN in % ([4]; dosage 80 g/ha): 90%
- Pre-emergence action against MATIN in % ([4]; dosage 320 g/ha): 90%
- Pre-emergence action against ALOMY ([5]; 320 g/ha): 80%
- Pre-emergence action against PHBPU in % ([6]; dosage 80 g/ha): 90%
- Pre-emergence action against PHBPU in % ([6]; dosage 320 g/ha): 90%
- Pre-emergence action against AVEFA in % (Avena fatua (AVEFA) [7]): 80%
- Post-emergence action against AMARE in % [8, 24]: 80%
- Post-emergence action against ALOMY in % ([9]; 320 g/ha): 90%
- Pre-emergence action against SETVI in % (Setaria viridis (SETVI) [10]; dosage 80 g/ha): 80%
- Pre-emergence action against SETVI in % (Setaria viridis (SETVI) [10]; dosage 320 g/ha): 100%
- Pre-emergence action against AMARE in % ([11]; 80 g/ha): 90%
- Pre-emergence action against AMARE in % ([11]; 320 g/ha): 100%
- Post-emergence action against MATIN in % [12]: 80%
- Post-emergence action against VIOTR in % (Viola tricolor (VIOTR) [13]): 80%
- Post-emergence action against VERPE in % ([15]; 320 g/ha, VERPE): 90%
- Post-emergence action against VERPE in % ([15]; dosage 80 g/ha): 80%
- Post-emergence action against ECHCG in % ([16]; dosage 80 g/ha): 80%
- Post-emergence action against ECHCG in % ([16]; dosage 320 g/ha): 80%
- Pre-emergence action against VERPE in % ([17]; dosage 320 g/ha): 90%
- Post-emergence action against ABUTH in % ([18]; 320 g/ha): 80%
- Post-emergence action against SETVI in % (Setaria viridis (SETVI) [21]; dosage 80 g/ha): 90%
- Post-emergence action against SETVI in % (Setaria viridis (SETVI) [21]; dosage 320 g/ha): 90%
- Post-emergence action against ORYSA in % (Oryza sativa (ORYSA)): 10%
- Pre-emergence action against VIOTR in % (Viola tricolor (VIOTR) [22]; 320 g/ha, Viola tricolor): 100%
- Pre-emergence action against VIOTR in % (Viola tricolor (VIOTR) [22]; dosage 80 g/ha): 100%
- Post-emergence action against PHBPU in % ([23]; dosage 80 g/ha): 80%
- Post-emergence action against PHBPU in % ([23]; dosage 320 g/ha): 90%

Source: patent publication US20240041042A1, “1-(PYRIDYL)-5-AZINYLPYRAZOLE DERIVATIVES, AND THEIR USE FOR CONTROL OF UNDESIRED PLANT GROWTH” (Bayer Aktiengesellschaft, priority 2020, published 2024)
